Measurements published in ChEMBL document CHEMBL1201862, “PubChem BioAssay data set” (2004).
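Exposure lasted 48 hours, with cells grown in 96-well plates and compounds tested at five concentrations. Here, GI50 denotes the concentration required for 50% inhibition of growth.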 Active and inactive are the calls of the source. Rule as the data show it: active = GI50 up to about 1.1 µM and inactive = higher.

Legend:
Experiment in all cases: inhibition of tumour cell growth, NCI panel, 48 h
TK-10 = tested on: TK-10
OVCAR-4 = tested on: OVCAR-4
HL-60 = tested on: HL-60
A549 = tested on: A549
T47D = tested on: T47D
MDA-MB-435 = tested on: MDA-MB-435
SNB-75 = tested on: SNB-75
NCI-H23 = tested on: NCI-H23
NCI-H460 = tested on: NCI-H460
K562 = tested on: K562
HCT-116 = tested on: HCT-116
SNB-19 = tested on: SNB-19
PC-3 = tested on: PC-3
OVCAR-8 = tested on: OVCAR-8
KM12 = tested on: KM12
SF-539 = tested on: SF-539
CAKI-1 = tested on: CAKI-1
A498 = tested on: A498
NCI/ADR-RES = tested on: NCI/ADR-RES
Malme-3M = tested on: Malme-3M

Measured: GI50

SC[C@@H]1COC[C@H](CS)S1
inactive: TK-10 > 100 µM | OVCAR-4 > 100 µM | HL-60 > 100 µM | A549 > 100 µM | T47D > 100 µM | MDA-MB-435 > 100 µM | SNB-75 58.9 µM | NCI-H23 > 100 µM | NCI-H460 > 100 µM | K562 > 100 µM | HCT-116 > 100 µM | SNB-19 > 100 µM | PC-3 > 100 µM | OVCAR-8 > 100 µM | KM12 > 100 µM | SF-539 > 100 µM

N#Cc1c(-c2ccc(Cl)cc2)c2c([nH]c1=O)-c1ccccc1SC2
inactive: TK-10 16.2 µM | CAKI-1 47.2 µM | OVCAR-4 38.6 µM | HL-60 21 µM | A549 30.3 µM | A498 > 100 µM | MDA-MB-435 41 µM | SNB-75 27.5 µM | NCI-H23 93.3 µM | NCI-H460 46.3 µM | K562 32.9 µM | HCT-116 35.4 µM | SNB-19 91.8 µM | PC-3 42.8 µM | OVCAR-8 57.5 µM | KM12 63.7 µM | NCI/ADR-RES 29.2 µM | Malme-3M 33.1 µM | SF-539 25.6 µM

Brc1ccc(-c2cc(-c3ccc4c(c3)OCO4)c(-c3cccs3)n2Cc2ccccc2)cc1
inactive: TK-10 > 100 µM | CAKI-1 > 100 µM | OVCAR-4 > 100 µM | HL-60 > 100 µM | A549 > 100 µM | T47D > 100 µM | MDA-MB-435 > 100 µM | SNB-75 > 100 µM | NCI-H460 > 100 µM | K562 > 100 µM | HCT-116 > 100 µM | SNB-19 > 100 µM | PC-3 > 100 µM | OVCAR-8 > 100 µM | KM12 > 100 µM | NCI/ADR-RES > 100 µM | SF-539 > 100 µM

Cc1cn([C@H]2CN(O)C[C@@H](CO)O2)c(=O)[nH]c1=O
inactive: TK-10 > 100 µM | CAKI-1 > 100 µM | OVCAR-4 > 100 µM | HL-60 > 100 µM | A549 > 100 µM | A498 > 100 µM | T47D > 100 µM | MDA-MB-435 > 100 µM | SNB-75 > 100 µM | NCI-H460 > 100 µM | K562 > 100 µM | HCT-116 > 100 µM | SNB-19 > 100 µM | PC-3 > 100 µM | OVCAR-8 > 100 µM | KM12 > 100 µM | SF-539 > 100 µM

Cc1ccc(SC(=O)N2C(=S)N=C(NC3CCCCC3)C23CCCCC3)cc1
inactive: TK-10 25.2 µM | CAKI-1 > 100 µM | OVCAR-4 > 100 µM | HL-60 38.6 µM | A549 75.5 µM | T47D 52.1 µM | MDA-MB-435 > 100 µM | SNB-75 57.9 µM | NCI-H23 > 100 µM | NCI-H460 81.3 µM | K562 > 100 µM | HCT-116 > 100 µM | SNB-19 > 100 µM | PC-3 44.6 µM | KM12 69.7 µM | NCI/ADR-RES > 100 µM | Malme-3M > 100 µM | SF-539 > 100 µM

Nc1ccc2c3c1cccc3c(=O)n1c3ccc(Cc4ccc5c(c4)nc4c6ccc(N)c7cccc(c(=O)n54)c76)cc3nc21
inactive: CAKI-1 > 100 µM | OVCAR-4 > 100 µM | HL-60 > 100 µM | A549 > 100 µM | A498 > 100 µM | MDA-MB-435 > 100 µM | SNB-75 30.8 µM | NCI-H23 > 100 µM | NCI-H460 > 100 µM | K562 > 100 µM | HCT-116 > 100 µM | SNB-19 > 100 µM | PC-3 > 100 µM | OVCAR-8 > 100 µM | KM12 > 100 µM | NCI/ADR-RES > 100 µM | Malme-3M > 100 µM | SF-539 > 100 µM

CCOC(=O)[C@@H]1ON2O[C@H](OC3CCCCC3c3ccccc3)C[C@H]3OC(=O)[C@@H]1C32 (stereo not given in full)
inactive: TK-10 > 100 µM | CAKI-1 > 100 µM | A549 > 100 µM | A498 > 100 µM | T47D > 100 µM | MDA-MB-435 > 100 µM | SNB-75 > 100 µM | NCI-H23 27 µM | NCI-H460 39.8 µM | K562 > 100 µM | HCT-116 > 100 µM | OVCAR-8 > 100 µM | KM12 80 µM | NCI/ADR-RES > 100 µM | SF-539 > 100 µM

O=C1Nc2ccccc2C1Cc1ccc([N+](=O)[O-])cc1 (stereo not given)
inactive: TK-10 > 100 µM | CAKI-1 > 100 µM | OVCAR-4 84.5 µM | HL-60 5.57 µM | A549 > 100 µM | T47D > 100 µM | MDA-MB-435 > 100 µM | SNB-75 > 100 µM | NCI-H23 > 100 µM | NCI-H460 > 100 µM | K562 > 100 µM | HCT-116 > 100 µM | SNB-19 > 100 µM | PC-3 74 µM | OVCAR-8 > 100 µM | KM12 36.2 µM | NCI/ADR-RES > 100 µM

O=C(C(=O)n1ccc2ccccc21)c1c[nH]c2ccccc12
inactive: TK-10 > 10 µM | CAKI-1 > 10 µM | OVCAR-4 > 10 µM | HL-60 > 10 µM | A549 > 10 µM | T47D > 10 µM | MDA-MB-435 > 10 µM | SNB-75 > 10 µM | NCI-H23 > 10 µM | NCI-H460 > 10 µM | K562 > 10 µM | HCT-116 > 10 µM | SNB-19 > 10 µM | PC-3 > 10 µM | OVCAR-8 > 10 µM | KM12 > 10 µM | NCI/ADR-RES > 10 µM | Malme-3M > 10 µM | SF-539 > 10 µM

O=C1C(=c2cc3c(c4ccccc24)=NC24CCCCC2C(c2ccccc2)C=C(c2ccccc2)N34)C(=O)c2ccccc21 (stereo not given)
inactive: TK-10 > 100 µM | CAKI-1 53 µM | OVCAR-4 15.5 µM | HL-60 27.7 µM | A549 41 µM | A498 > 100 µM | T47D 3.48 µM | MDA-MB-435 22 µM | SNB-75 54 µM | K562 23 µM | HCT-116 36.2 µM | SNB-19 45.2 µM | PC-3 25.8 µM | OVCAR-8 50.4 µM | KM12 30.4 µM | Malme-3M 45.1 µM | SF-539 41.1 µM

Cc1cccc2c1Oc1ccccc1C2NC(=O)c1ccc([N+](=O)[O-])cc1 (stereo not given)
inactive: TK-10 > 100 µM | CAKI-1 69 µM | OVCAR-4 32.2 µM | HL-60 > 100 µM | A549 > 100 µM | A498 76.4 µM | T47D > 100 µM | NCI-H23 > 100 µM | NCI-H460 > 100 µM | K562 > 100 µM | HCT-116 > 100 µM | SNB-19 > 100 µM | PC-3 > 100 µM | OVCAR-8 > 100 µM | KM12 > 100 µM | NCI/ADR-RES 79.4 µM | Malme-3M 86.7 µM
